The values that follow are results of earlier work, collected in patent publication US6369115B1, “Stabilized powder formulations” (Dura Pharmaceuticals, Inc., priority 2000, dated 2002).

Molecules are shown by their SMILES.

`COc1ccc(CC(C)NCC(O)c2ccc(O)c(NC=O)c2)cc1` (centres unmarked) [Formoterol, N-[2-hydroxy-5-[1-hydroxy-2-[[2-(4-methoxyphenyl)-1-methylethyl]amino]ethyl]phenyl]formamide]: the solubility in water entry is “soluble in water”.

On to `CCC(=O)O[C@]1(C(=O)SCF)[C@H](C)C[C@H]2[C@@H]3C[C@H](F)C4=CC(=O)C=C[C@]4(C)[C@@]3(F)[C@@H](O)C[C@@]21C` [fluticasone propionate, (6 alpha, 11 beta, 16 alpha, 17 alpha)-6,9,-difluoro-11-hydroxy-16-methyl-3-oxo-17-(1-oxopropoxy)androsta-1,4-diene-17-carbothioic acid, S-fluoromethyl ester], for which the solubility in water result was “insoluble in water”.
